Experimental data taken from BigSolDB 2.1.

O=Cc1cc(Br)c(O)c(Br)c1
solubility (mole fraction)
Settings | 278.15 K | 283.15 K | 288.15 K | 293.15 K | 298.15 K | 303.15 K | 308.15 K | 313.15 K | 318.15 K | 323.15 K
in 1,4-dioxane | – | – | 0.0128 | 0.0143 | 0.0161 | 0.0183 | 0.0208 | 0.0236 | 0.0266 | 0.03
in DMF | 0.00805 | 0.00912 | 0.0104 | 0.012 | 0.0137 | 0.0157 | 0.0178 | 0.0201 | 0.0225 | 0.0251
in DMSO | – | – | – | 0.00895 | 0.0101 | 0.0115 | 0.0132 | 0.0152 | 0.0174 | 0.0203
in acetonitrile | 0.002 | 0.00233 | 0.00277 | 0.00328 | 0.00383 | 0.00452 | 0.00531 | 0.00621 | 0.00734 | 0.0086
in cyclohexane | – | 0.000245 | 0.000317 | 0.000408 | 0.000513 | 0.000637 | 0.000791 | 0.000965 | 0.00116 | 0.00139
in ethanol | 0.00281 | 0.00314 | 0.00358 | 0.00413 | 0.00477 | 0.00555 | 0.00646 | 0.00742 | 0.00851 | 0.00974
in ethyl acetate | 0.0055 | 0.00634 | 0.00729 | 0.00845 | 0.0098 | 0.0114 | 0.0131 | 0.015 | 0.0171 | 0.0194
in ethylene glycol | 0.00234 | 0.00274 | 0.00327 | 0.00397 | 0.00476 | 0.00571 | 0.00675 | 0.00796 | 0.00923 | 0.0107
in isobutanol | 0.00368 | 0.00422 | 0.0049 | 0.00569 | 0.00659 | 0.00762 | 0.00878 | 0.01 | 0.0115 | 0.0132
in isopropanol | 0.003 | 0.00343 | 0.00399 | 0.00467 | 0.00542 | 0.00629 | 0.00731 | 0.00841 | 0.00966 | 0.011
in methanol | 0.00195 | 0.0022 | 0.00252 | 0.00294 | 0.00341 | 0.00395 | 0.00457 | 0.00526 | 0.00604 | 0.00689
in n-butanol | 0.00412 | 0.00466 | 0.00539 | 0.00624 | 0.00726 | 0.00846 | 0.0098 | 0.0112 | 0.0128 | 0.0147
in n-octanol | 0.00788 | 0.00908 | 0.0105 | 0.0121 | 0.0139 | 0.016 | 0.0184 | 0.021 | 0.024 | 0.0275
in n-pentanol | 0.00662 | 0.00744 | 0.00859 | 0.0101 | 0.0116 | 0.0135 | 0.0155 | 0.0176 | 0.02 | 0.0226
in n-propanol | 0.00339 | 0.00379 | 0.00434 | 0.00499 | 0.00579 | 0.0067 | 0.00779 | 0.00897 | 0.0103 | 0.0118
in water | 4.91e-05 | 6.34e-05 | 8.16e-05 | 0.000103 | 0.000131 | 0.000167 | 0.000213 | 0.000267 | 0.000332 | 0.000406
